The values below come from patent publication US20090170812A1, “Transcription factor modulating compounds and methods of use thereof” (priority 2006, published 2009).

Each structure is given as a SMILES string.

Series [1] concerns the target T1, ExsA (Pseudomonas aeruginosa, UniProt P26993).
T1 construct: made in house
T1 sequence (P26993 1-278): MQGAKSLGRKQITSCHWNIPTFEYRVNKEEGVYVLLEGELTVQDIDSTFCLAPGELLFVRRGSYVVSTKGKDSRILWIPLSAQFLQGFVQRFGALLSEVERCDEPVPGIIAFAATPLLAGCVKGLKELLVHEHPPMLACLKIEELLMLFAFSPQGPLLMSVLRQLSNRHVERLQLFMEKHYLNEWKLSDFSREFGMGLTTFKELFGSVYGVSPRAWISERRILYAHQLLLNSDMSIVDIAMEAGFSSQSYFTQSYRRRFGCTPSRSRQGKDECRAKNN
Description: In vitro activity of Mar inhibitors against ExsA: cell-free DNA binding assay. The conditions noted are these: purified ExsA from P. aeruginosa, inhibition of DNA binding in vitro.

In series [2] the test system is P. aeruginosa. Nature of the series: Whole cell assay: cytotoxicity of P. aeruginosa toward J774 cells (CytoTox 96, LDH release). The note with it: percent cytotoxicity of treated P. aeruginosa toward J774 cells.
Series [3] deals with LcrF (VirF) (Yersinia pestis, UniProt P28808). Nature of the series: biochemical. It counts as binding, Y. pseudotuberculosis.
Sequence of LcrF (VirF) (P28808 whole entry, looked up): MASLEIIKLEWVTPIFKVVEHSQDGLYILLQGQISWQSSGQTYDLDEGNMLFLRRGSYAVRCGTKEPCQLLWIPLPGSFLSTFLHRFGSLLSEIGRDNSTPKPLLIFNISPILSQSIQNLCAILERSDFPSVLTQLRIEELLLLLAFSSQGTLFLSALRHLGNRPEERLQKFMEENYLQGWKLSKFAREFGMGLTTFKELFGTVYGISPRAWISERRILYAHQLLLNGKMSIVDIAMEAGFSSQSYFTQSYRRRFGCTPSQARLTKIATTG
Series [4] relates to Yersinia pseudotuberculosis.

In the case of `CCOP(=O)(COn1c(-c2ccc(NC(=O)/C=C/c3ccc(F)cc3)cc2)nc2ccc([N+](=O)[O-])cc21)OCC` [Compound AS, (2-{4-[(E)-3-(4-Fluoro-phenyl)-acryloylamino]-phenyl}-6-nitro-benzoimidazol-1-yloxymethyl)-phosphonic Acid Diethyl Ester], the EC50 (in general, the concentration at which the effect is half-maximal) was 10.1 to 25 µM in series [1] and over 25.1 µM in series [3]. In addition, the “Cytotoxicity at 50 μg/mL Pseudomonas” value in series [2] is on record as “* (percent cytotoxicities above 75% at 50 mg/mL)”. Moreover, the “Cytotoxicity at 50 μg/mL Yersinia” value in series [4] is reported as “* (key: *: percent cytotoxicity above 75% at 50 μg/mL; **: cytotoxicities below 75% at 50 μg/mL)”.
For `O=C(/C=C/c1ccc(F)cc1)Nc1ccc(-c2nc3ccc([N+](=O)[O-])cc3n2O)cc1F` [Compound AZ, (E)-N-[2-Fluoro-4-(1-hydroxy-6-nitro-1H-benzoimidazol-2-yl)-phenyl]-3-(4-fluoro-phenyl)-acrylamide] the same measures were 10.1 to 25 µM, 10.1 to 25 µM, “* (percent cytotoxicities above 75% at 50 mg/mL)” and “* (key: *: percent cytotoxicity above 75% at 50 μg/mL; **: cytotoxicities below 75% at 50 μg/mL)”.
For `N#Cc1ccc2nc(-c3ccc(NC(=O)/C=C/c4ccccc4)cc3)n(O)c2c1` [Compound A] the same measures were 10.1 to 25 µM, 10.1 to 25 µM, “* (percent cytotoxicities above 75% at 50 mg/mL)” and “* (key: *: percent cytotoxicity above 75% at 50 μg/mL; **: cytotoxicities below 75% at 50 μg/mL)”.
On to `CC(=O)c1ccc(C(=O)Nc2ccc(-c3nc4ccc([N+](=O)[O-])cc4n3O)cc2F)cc1` [Compound BA, 4-Acetyl-N-[2-fluoro-4-(1-hydroxy-6-nitro-1H-benzoimidazol-2-yl)-phenyl]-benzamide], for which the EC50 was under 10 µM in series [1] and 10.1 to 25 µM in series [3]. Further, the “Cytotoxicity at 50 μg/mL Pseudomonas” value in series [2] is given as “* (percent cytotoxicities above 75% at 50 mg/mL)”. Also, the “Cytotoxicity at 50 μg/mL Yersinia” value in series [4] was “* (key: *: percent cytotoxicity above 75% at 50 μg/mL; **: cytotoxicities below 75% at 50 μg/mL)”.
In the case of `Cc1cc2nc(-c3ccc(NC(=O)/C=C/c4ccc(F)cc4)cc3)n(O)c2cc1[N+](=O)[O-]` [Compound BC, (E)-3-(4-Fluoro-phenyl)-N-[4-(1-hydroxy-5-methyl-6-nitro-1H-benzoimidazol-2-yl)-phenyl]-acrylamide], the EC50 in series [1] and in series [3] was under 10 µM throughout. For the same compound, the “Cytotoxicity at 50 μg/mL Pseudomonas” value in series [2] was “** (cytotoxicities below 75% at 50 mg/mL)”. Also, the “Cytotoxicity at 50 μg/mL Yersinia” value in series [4] is “** (key: *: percent cytotoxicity above 75% at 50 μg/mL; **: cytotoxicities below 75% at 50 μg/mL)”.
`O=C(/C=C/c1ccc(-n2cncn2)cc1)Nc1ccc(-c2nc3ccc([N+](=O)[O-])cc3n2O)cc1` [Compound BI, (E)-N-[4-(1-Hydroxy-6-nitro-1H-benzoimidazol-2-yl)-phenyl]-3-(4-[1,2,4]triazol-1-yl-phenyl)-acrylamide]: the EC50 in series [1] is under 10 µM; in series [3] it was over 25.1 µM. In addition, the “Cytotoxicity at 50 μg/mL Pseudomonas” value in series [2] is “** (cytotoxicities below 75% at 50 mg/mL)”. Further, the “Cytotoxicity at 50 μg/mL Yersinia” value in series [4] is given as “** (key: *: percent cytotoxicity above 75% at 50 μg/mL; **: cytotoxicities below 75% at 50 μg/mL)”.
Regarding `CCOc1cc2nc(-c3ccc(NC(=O)/C=C/c4ccc(F)cc4)cc3)n(O)c2cc1[N+](=O)[O-]` [Compound BJ, (E)-N-[4-(5-Ethoxy-1-hydroxy-6-nitro-1H-benzoimidazol-2-yl)-phenyl]-3-(4-fluoro-phenyl)-acrylamide], the EC50 in series [1] was under 10 µM; in series [3], 10.1 to 25 µM. The “Cytotoxicity at 50 μg/mL Pseudomonas” value in series [2] is recorded as “** (cytotoxicities below 75% at 50 mg/mL)”. In series [4], the “Cytotoxicity at 50 μg/mL Yersinia” value was “** (key: *: percent cytotoxicity above 75% at 50 μg/mL; **: cytotoxicities below 75% at 50 μg/mL)”.
For `Cc1cc2nc(-c3ccc(NC(=O)c4ccc(-c5cnco5)cc4)cc3)n(O)c2cc1[N+](=O)[O-]` [Compound BL, N-[4-(1-Hydroxy-5-methyl-6-nitro-1H-benzoimidazol-2-yl)-phenyl]-4-oxazol-5-yl-benzamide] the same measures were under 10 µM, over 25.1 µM, “** (cytotoxicities below 75% at 50 mg/mL)” and “** (key: *: percent cytotoxicity above 75% at 50 μg/mL; **: cytotoxicities below 75% at 50 μg/mL)”.
The matching figures for `CN(C)c1cc2nc(-c3ccc(NC(=O)/C=C/c4ccc(F)cc4)cc3)n(O)c2cc1[N+](=O)[O-]` [Compound BN, N-[4-(5-Dimethylamino-1-hydroxy-6-nitro-1H-benzoimidazol-2-yl)-phenyl]-3-(4-fluorocinnamyl)-amide]: 10.1 to 25 µM, over 25.1 µM, “** (cytotoxicities below 75% at 50 mg/mL)” and “** (key: *: percent cytotoxicity above 75% at 50 μg/mL; **: cytotoxicities below 75% at 50 μg/mL)”.
The matching figures for `N#Cc1ccc2nc(-c3ccc(NC(=O)/C=C/c4ccc(F)cc4)cc3)n(O)c2c1` [Compound B]: under 10 µM, under 10 µM, “** (cytotoxicities below 75% at 50 mg/mL)” and “** (key: *: percent cytotoxicity above 75% at 50 μg/mL; **: cytotoxicities below 75% at 50 μg/mL)”.
For `CC(=O)c1ccc(C(=O)Nc2ccc(-c3nc4ccc(C#N)cc4n3O)cc2)cc1` [Compound C], the EC50 in series [1] is under 10 µM; in series [3], over 25.1 µM. For the same compound, the “Cytotoxicity at 50 μg/mL Pseudomonas” value in series [2] is reported as “** (cytotoxicities below 75% at 50 mg/mL)”. Further, the “Cytotoxicity at 50 μg/mL Yersinia” value in series [4] is “** (key: *: percent cytotoxicity above 75% at 50 μg/mL; **: cytotoxicities below 75% at 50 μg/mL)”.
The matching figures for `N#Cc1ccc(C(=O)Nc2ccc(-c3nc4ccc(C#N)cc4n3O)cc2)cc1` [D]: under 10 µM, under 10 µM, “* (percent cytotoxicities above 75% at 50 mg/mL)” and “** (key: *: percent cytotoxicity above 75% at 50 μg/mL; **: cytotoxicities below 75% at 50 μg/mL)”.
For `Cc1ccc(/C=C/C(=O)Nc2ccc(-c3nc4ccc(C#N)cc4n3O)cc2)cc1` [E] the same measures were under 10 µM, 10.1 to 25 µM, “* (percent cytotoxicities above 75% at 50 mg/mL)” and “** (key: *: percent cytotoxicity above 75% at 50 μg/mL; **: cytotoxicities below 75% at 50 μg/mL)”.
The matching figures for `O=C(Nc1ccc(-c2nc3ccc([N+](=O)[O-])cc3n2O)cc1)/C(=C/c1ccccc1)c1ccccc1` [F]: 10.1 to 25 µM, under 10 µM, “** (cytotoxicities below 75% at 50 mg/mL)” and “* (key: *: percent cytotoxicity above 75% at 50 μg/mL; **: cytotoxicities below 75% at 50 μg/mL)”.
As for `O=C(Nc1ccc(-c2nc3ccc([N+](=O)[O-])cc3n2O)cc1)/C(F)=C/c1ccccc1` [G], the EC50 in series [1] is under 10 µM; in series [3] it was 10.1 to 25 µM. Besides, the “Cytotoxicity at 50 μg/mL Pseudomonas” value in series [2] is recorded as “** (cytotoxicities below 75% at 50 mg/mL)”. In addition, the “Cytotoxicity at 50 μg/mL Yersinia” value in series [4] is on record as “* (key: *: percent cytotoxicity above 75% at 50 μg/mL; **: cytotoxicities below 75% at 50 μg/mL)”.
With `COc1ccc(/C=C/C(=O)Nc2ccc(-c3nc4ccc([N+](=O)[O-])cc4n3O)cc2)c(OC)c1` [J], the values for the EC50 in series [1] and in series [3] were under 10 µM and over 25.1 µM, respectively. The “Cytotoxicity at 50 μg/mL Pseudomonas” value in series [2] was “* (percent cytotoxicities above 75% at 50 mg/mL)”. Also, in series [4], the “Cytotoxicity at 50 μg/mL Yersinia” value is reported as “** (key: *: percent cytotoxicity above 75% at 50 μg/mL; **: cytotoxicities below 75% at 50 μg/mL)”.
For `N#Cc1ccc2nc(-c3ccc(NC(=O)c4ccc(F)cc4)cc3)n(O)c2c1` [K] the same measures were 10.1 to 25 µM, over 25.1 µM, “* (percent cytotoxicities above 75% at 50 mg/mL)” and “* (key: *: percent cytotoxicity above 75% at 50 μg/mL; **: cytotoxicities below 75% at 50 μg/mL)”.
The matching figures for `O=C(Nc1ccc(-c2nc3ccc([N+](=O)[O-])cc3n2O)cc1)c1ccc(F)c(F)c1` [P]: 10.1 to 25 µM, 10.1 to 25 µM, “* (percent cytotoxicities above 75% at 50 mg/mL)” and “* (key: *: percent cytotoxicity above 75% at 50 μg/mL; **: cytotoxicities below 75% at 50 μg/mL)”.
For `O=C(Nc1ccc(-c2nc3ccc([N+](=O)[O-])cc3n2O)cc1)c1ccc(-c2cncnc2)cc1` [R] the same measures were 10.1 to 25 µM, over 25.1 µM, “* (percent cytotoxicities above 75% at 50 mg/mL)” and “** (key: *: percent cytotoxicity above 75% at 50 μg/mL; **: cytotoxicities below 75% at 50 μg/mL)”.
With `Cc1cc(C(=O)Nc2ccc(-c3nc4ccc([N+](=O)[O-])cc4n3O)cc2)ccc1F` [S], the 50% effective concentration (EC50) in series [1] and in series [3] was 10.1 to 25 µM each time. In addition, the “Cytotoxicity at 50 μg/mL Pseudomonas” value in series [2] is recorded as “* (percent cytotoxicities above 75% at 50 mg/mL)”. In addition, the “Cytotoxicity at 50 μg/mL Yersinia” value in series [4] was “* (key: *: percent cytotoxicity above 75% at 50 μg/mL; **: cytotoxicities below 75% at 50 μg/mL)”.
